Measurements as given in US4859669A, “Antiinflammatory and anti-hyperproliferative naphthyridin-4-ones” (Schering Corporation, priority 1987, dated 1989).
Read-outs that look alike come from different tables or passages of the source.

Key:
pleural cavity of rats = test: Reverse passive Arthus reaction in the pleural cavity of rats (Myers et al.); format: in vivo; conditions: po; rat
From the text: Another procedure for testing for acute antiinflammatory activity measures the reverse passive Arthus reaction in the pleural cavity of rats as described in Myers et al., Inflammation, Vol. 9, No. 1, 1985, pp. 91-98.

[1] = system: Male Lewis inbred albino rats; test: Reversed passive Arthus reaction (RPAR), rat paw volume; format: in vivo; conditions: po, 1 h, dosed one hour prior to sensitization with BSA
Protocol: REVERSED PASSIVE ARTHUS REACTION (RPAR) ANIMALS, MATERIALS AND METHODS
Male Lewis inbred albino rats weighting 180-220 grams obtained from Charles River Breeding Laboratories are used in these experiments. The rats are housed 3 animals/cage and food and water are allowed ad libitum. The animals are numbered 1-3 in each cage and color marked for identification purposes.
All reagents and drugs are prepared just prior to the study. Crystallized and lyophilized bovine serum albumin (BSA), obtained from Sigma Chemical Company, is solubilized without shaking in cold sterile pyrogen free saline (10 mg/ml). Lyophilized anti-bovine serum albumin (IgG Fraction), obtained from Cappel Laboratories, is suspended in sterile distilled water and diluted with cold pyrogen free saline (PFS) just prior to use. The final concentration of anti-bovine serum albumin is 0.5 mg/ml of PFS. Both BSA and anti-BSA solutions are iced during use. Drugs are suspended or solubilized in an aqueous solution of methyl cellulose (MC) with a homogenizer just prior to administration.
Groups of animals (6/group) are dosed with drug in MC by gavage one hour prior to sensitization with BSA. […] The volume of mercury displaced is converted to weight and recorded. […] Paw volumes are also recorded with a plethysmograph during the development of the inflammation at 2 and 4 hours post-challenge.

5-lipoxygenase = target: T1, 5-lipoxygenase (Rattus norvegicus, UniProt P12527); test: Lipoxygenase assay: arachidonic acid metabolism in rat neutrophils; format: cell-based; conditions: compound 5×10^-5 Molar
T1 construct: endogenous in cells; host or cells: neutrophils isolated from the pleural exudate of male Wistar-Lewis rats (given "Witar-Lewis" in the source) after BSA / anti-BSA challenge
T1 sequence (P12527 1-673): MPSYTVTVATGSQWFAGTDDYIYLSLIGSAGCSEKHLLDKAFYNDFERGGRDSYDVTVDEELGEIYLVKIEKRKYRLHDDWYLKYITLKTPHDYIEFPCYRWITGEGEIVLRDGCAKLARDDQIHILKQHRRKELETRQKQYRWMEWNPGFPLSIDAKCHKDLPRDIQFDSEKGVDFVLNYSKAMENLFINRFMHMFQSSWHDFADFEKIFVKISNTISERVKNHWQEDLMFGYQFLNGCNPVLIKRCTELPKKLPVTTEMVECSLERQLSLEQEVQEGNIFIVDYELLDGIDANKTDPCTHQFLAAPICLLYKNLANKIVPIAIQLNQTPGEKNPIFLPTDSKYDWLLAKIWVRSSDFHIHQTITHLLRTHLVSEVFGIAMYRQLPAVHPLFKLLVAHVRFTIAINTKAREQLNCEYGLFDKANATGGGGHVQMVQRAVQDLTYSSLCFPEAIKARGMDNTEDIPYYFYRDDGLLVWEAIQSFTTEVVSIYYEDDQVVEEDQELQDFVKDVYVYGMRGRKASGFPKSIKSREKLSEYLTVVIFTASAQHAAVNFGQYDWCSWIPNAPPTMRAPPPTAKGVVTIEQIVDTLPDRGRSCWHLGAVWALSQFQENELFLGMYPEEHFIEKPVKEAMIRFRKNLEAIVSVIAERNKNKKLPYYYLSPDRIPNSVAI
Protocol: The effect of the compounds of the invention on 5-lipoxygenase activity is determined using rat neutrophils. Male Witar-Lewis rats are injected intravenously with 5 mg BSA in 0.2 ml pyrogen free saline followed by an intrapleural injection of 500 ug of the IgG fraction of rabbit anti-BSA (Cappel Labs., Lot 17782) in 0.2 ml pyrogen free saline. Injections are made under light ether anesthesia. Four hours later, the pleural cavity exudate consisting of 85 to 95% neutrophils is removed. Neutrophils are isolated from the pleural exudates by centrifugation of 4° C. for 10 min at 200× g. The cell pellet is resuspended in 17 mM Tris is HCl buffer, pH 7.2, containing 0.75% NH4 Cl to lyse contaminating erythrocytes followed by centrifugation at 4° C. for 5 min at 200× g. The pelleted neutrophils are rewashed in 50 mM Tris HCl, pH 7.4, containing 100 mM NaCl, followed by the same centrifugation. The cell pellet is resuspended in 50 mM Tris HCl, pH 7.4, containing 100 mM NaCl and 1 mM CaCl2, at 3-12×10^7 intact neutrophils per ml.
Solutions of compounds in methanol are dried, then resuspended in the cell suspension for 4 min. Arachidonic acid methabolism is determined by incubating 0.1 ml of this suspension with 40 μM [1-^14 C] arachidonic acid (AA) (Amersham, 59 Ci/mole), in the presence of 0.1% BRIJ 56 and 10 μM A23187. Arachidonic acid metabolism as well as the various drug and reagent abbreviations are described in detail in Arch. Dermatol, Vol. 119, pages 541 to 547 (July 1983), the teachings of which are incorporated herein by reference. Assays run in triplicate are initiated by adding cells with inhibitor to a film of the BRIJ 56, arachidonic acid and A23187 37° C. After one minute, reactions are terminated by the addition of 2.4 ml of a chloroform:methanol (1:1 v/v) mixture and 0.9 ml of 0.1% formic acid. […] Products, leukotriene B4 (LTB4), 12-hydroxy heptadecatrienoic acid (HHT) and 5-hydroxy icosatetraenoic acid (5-HETE), are located by autoradiography and appropriate regions of the thin layer plates are scraped and counted in a liquid scintillation counter. […]

SMILES | ED50 (pleural cavity of rats) | ED50 [1] | inhibition at 50 µM (5-lipoxygenase; read-out: inhibition of HETE production) | inhibition at 50 µM (5-lipoxygenase; read-out: inhibition of HHT production) | inhibition at 50 µM (5-lipoxygenase; read-out: inhibition of LTB4 production)
CCOC(=O)N1CCc2c1c1cccnc1n(-c1ccccc1)c2=O [2,3,4,5-tetrahydro-4-oxo-5-phenyl-1H-pyrrolo[3,2-c][1,8]napthyridine-1-carboxylic acid, ethyl ester] | ~25 mg/kg | – | – | – | –
O=c1c2c(c3cccnc3n1-c1ccccc1)NCC2 [1,2,3,5-tetrahydro-5-phenyl-4H-pyrrolo[3,2-c][1,8]naphthyridin-4-one] | < 25 mg/kg | ~25 mg/kg | – | – | –
O=c1c2c(c3cccnc3n1-c1ccccc1)N(c1ccccc1)CC2 [1,2,3,5-tetrahydro-1,5-diphenyl-4H-pyrrolo[3,2-c][1,8]napthyridin-4-one] | – | – | 60% | ~40% | 60%
